Data reported in patent US20240409536A1, “COMPOUNDS AND METHODS FOR MODULATING SPLICING” (REMIX THERAPEUTICS INC., priority 2021, published 2024).

Experiments:
MYB mRNA [1] = assay: Splicing RT-qPCR assay, MYB canonical (CJ) and alternative (AJ) junction mRNA; format: cell-based; details: Homo sapiens, A673 or K562 cells, 24 hours; for IC50: decrease in canonical junction mRNA; for AC50: increase in alternative junction mRNA
Procedure, shortened: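 A673 or K562 cells were treated 24 h at 37 °C with compounds in an 11-point 3-fold dilution series (top final 10 uM, DMSO ≤0.25%). Lysates were analysed by one-step RT-qPCR for canonical (CJ) and alternative-exon (AJ) junction isoforms, normalized to GAPDH, GUSB or PPIA.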

MYB mRNA [2] = assay: Gene panel canonical junction qPCR assay, MYB CJ mRNA decrease; format: cell-based, human; details: Homo sapiens, canonical junction qPCR, read-out: MYB IC50 (decrease in CJ mRNA levels)
Procedure, shortened: (§1)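 A673 or K562 cells were treated with compound, and lysates underwent cDNA synthesis and qPCR with a CY5 5′-nuclease probe or primer spanning the canonical exon junction. ΔCt versus GAPDH, GUSB or PPIA was normalized to DMSO (2^(−ΔΔCt)), converted to percentage response and fitted four-parameter logistic for IC50.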

SMN2 mRNA = assay: Gene panel canonical junction qPCR assay, SMN2 CJ mRNA decrease; format: cell-based, human; details: Homo sapiens, canonical junction qPCR, read-out: SMN2 IC50 (decrease in CJ mRNA levels)
Procedure, shortened: as §1

SMILES: CNc1nc(NC(=O)c2ccc(N3C[C@@H](C)N[C@@H](C)C3)c3nccnc23)cn2cc(C)nc12 [Compound 308]
- IC50 (MYB mRNA [1]): 1000 to 10000 nM
- AC50 (MYB mRNA [1]): 1000 to 10000 nM
- IC50 (MYB mRNA [2]): 1000 to 10000 nM
- IC50 (SMN2 mRNA): 100 to 1000 nM

SMILES: Cc1c(O)c(NC(=O)c2ccc(N3C[C@@H](C)N[C@@H](C)C3)c3nccnc23)cc2cn(C)nc12 [Compound 310]
- IC50 (MYB mRNA [1]): 100 to 1000 nM
- AC50 (MYB mRNA [1]): 100 to 1000 nM
- IC50 (MYB mRNA [2]): 100 to 1000 nM
- IC50 (SMN2 mRNA): < 100 nM

SMILES: Cc1cn2cc(NC(=O)c3ccc(N4C[C@@H](C)N[C@H](C)C4)c4nccnc34)cc(F)c2n1 [Compound 312]
- IC50 (MYB mRNA [1]): < 100 nM
- AC50 (MYB mRNA [1]): < 100 nM
- IC50 (MYB mRNA [2]): < 100 nM
- IC50 (SMN2 mRNA): < 100 nM

SMILES: Cc1cn2cc(NC(=O)c3ccc(N4C[C@H](C)N[C@@H](C)C4)c4nccnc34)cc(F)c2n1 [Compound 313]
- IC50 (MYB mRNA [1]): < 100 nM
- AC50 (MYB mRNA [1]): < 100 nM
- IC50 (MYB mRNA [2]): < 100 nM
- IC50 (SMN2 mRNA): < 100 nM

SMILES: Cc1cn2cc(NC(=O)c3ccc(N4CC[C@@H](N)C4)c4nccnc34)cc(F)c2n1 [Compound 315]
- IC50 (MYB mRNA [1]): 100 to 1000 nM
- AC50 (MYB mRNA [1]): 1000 to 10000 nM
- IC50 (MYB mRNA [2]): 100 to 1000 nM
- IC50 (SMN2 mRNA): < 100 nM

SMILES: Cc1cn2cc(NC(=O)c3ccc(NC4CCNC4)c4nccnc34)cc(F)c2n1 (stereo not drawn) [Compound 316]
- IC50 (MYB mRNA [1]): 100 to 1000 nM
- AC50 (MYB mRNA [1]): 1000 to 10000 nM
- IC50 (MYB mRNA [2]): 100 to 1000 nM
- IC50 (SMN2 mRNA): < 100 nM

SMILES: C[C@@H]1CN(c2ccc(C(=O)Nc3cc(F)c4nn(C)cc4c3)c3nccnc23)C[C@@H](C)N1 [Compound 335]
- IC50 (MYB mRNA [1]): 100 to 1000 nM
- AC50 (MYB mRNA [1]): 100 to 1000 nM
- IC50 (MYB mRNA [2]): 100 to 1000 nM
- IC50 (SMN2 mRNA): < 100 nM

SMILES: Cc1cn2cc(NC(=O)c3ccc(N4CCC5(CCN5)C4)c4nccnc34)cc(F)c2n1 (stereo not drawn) [Compound 339]
- IC50 (MYB mRNA [1]): 100 to 1000 nM
- AC50 (MYB mRNA [1]): 1000 to 10000 nM
- IC50 (MYB mRNA [2]): 100 to 1000 nM
- IC50 (SMN2 mRNA): < 100 nM

SMILES: Cc1cn2cc(NC(=O)c3ccc(N4C[C@@H](C)N[C@@H](C)C4)c4cccnc34)cc(F)c2n1 [Compound 340]
- IC50 (MYB mRNA [1]): 100 to 1000 nM
- AC50 (MYB mRNA [1]): 100 to 1000 nM
- IC50 (MYB mRNA [2]): 100 to 1000 nM
- IC50 (SMN2 mRNA): < 100 nM

SMILES: Cc1cn2cc(NC(=O)c3ccc(N4CCNC5(CC5)C4)c4cccnc34)cc(F)c2n1 [Compound 341]
- IC50 (MYB mRNA [1]): 100 to 1000 nM
- AC50 (MYB mRNA [1]): 100 to 1000 nM
- IC50 (MYB mRNA [2]): 100 to 1000 nM
- IC50 (SMN2 mRNA): < 100 nM

SMILES: COc1nc2c(F)cc(NC(=O)c3ccc(N4C[C@@H](C)N[C@@H](C)C4)c4nccnc34)cc2o1 [Compound 342]
- IC50 (MYB mRNA [1]): > 10000 nM
- AC50 (MYB mRNA [1]): > 10000 nM
- IC50 (MYB mRNA [2]): > 10000 nM
- IC50 (SMN2 mRNA): 100 to 1000 nM

SMILES: C[C@@H]1CN(c2ccc(C(=O)Nc3cc(F)c4cnccc4c3)c3nccnc23)C[C@H](C)N1 [Compound 343]
- IC50 (MYB mRNA [1]): 1000 to 10000 nM
- AC50 (MYB mRNA [1]): 1000 to 10000 nM
- IC50 (MYB mRNA [2]): 1000 to 10000 nM
- IC50 (SMN2 mRNA): 100 to 1000 nM

SMILES: C[C@@H]1CN(c2ccc(C(=O)Nc3cc(F)c4ncccc4c3)c3nccnc23)C[C@H](C)N1 [Compound 344]
- IC50 (MYB mRNA [1]): 1000 to 10000 nM
- AC50 (MYB mRNA [1]): > 10000 nM
- IC50 (MYB mRNA [2]): 1000 to 10000 nM
- IC50 (SMN2 mRNA): 100 to 1000 nM

SMILES: Cc1cn2cc(NC(=O)c3ccc(N4CCNCC4)c4nncnc34)cc(F)c2n1 [Compound 345]
- IC50 (MYB mRNA [1]): 100 to 1000 nM
- AC50 (MYB mRNA [1]): 100 to 1000 nM
- IC50 (MYB mRNA [2]): 100 to 1000 nM
- IC50 (SMN2 mRNA): < 100 nM

SMILES: Cc1cn2cc(NC(=O)c3ccc(N4C[C@@H](C)N[C@@H](C)C4)c4ncc(OC5CC5)nc34)cc(F)c2n1 [Compound 351]
- IC50 (MYB mRNA [1]): 100 to 1000 nM
- AC50 (MYB mRNA [1]): 100 to 1000 nM
- IC50 (MYB mRNA [2]): 100 to 1000 nM
- IC50 (SMN2 mRNA): < 100 nM

SMILES: COc1nc(NC(=O)c2ccc(N3C[C@@H](C)N[C@@H](C)C3)c3nccnc23)cc2cn(C)nc12 [Compound 352]
- IC50 (MYB mRNA [1]): 100 to 1000 nM
- AC50 (MYB mRNA [1]): 100 to 1000 nM
- IC50 (MYB mRNA [2]): 100 to 1000 nM
- IC50 (SMN2 mRNA): < 100 nM

SMILES: Cc1ccc2cc(NC(=O)c3ccc(N4C[C@@H](C)N[C@@H](C)C4)c4nccnc34)cc(F)c2n1 [Compound 353]
- IC50 (MYB mRNA [1]): > 10000 nM
- AC50 (MYB mRNA [1]): > 10000 nM
- IC50 (MYB mRNA [2]): > 10000 nM
- IC50 (SMN2 mRNA): 100 to 1000 nM

SMILES: Cc1cn2nc(NC(=O)c3ccc(N4C[C@@H](C)N[C@@H](C)C4)c4nccnc34)cc2c(C)n1 [Compound 354]
- IC50 (MYB mRNA [1]): 100 to 1000 nM
- AC50 (MYB mRNA [1]): 100 to 1000 nM
- IC50 (MYB mRNA [2]): 100 to 1000 nM
- IC50 (SMN2 mRNA): 100 to 1000 nM

SMILES: Cc1cn2cc(NC(=O)c3ccc(N4C[C@@H](C)N(O)[C@@H](C)C4)c4nccnc34)cc(F)c2n1 [Compound 355]
- IC50 (MYB mRNA [1]): 100 to 1000 nM
- AC50 (MYB mRNA [1]): 100 to 1000 nM
- IC50 (MYB mRNA [2]): 100 to 1000 nM
- IC50 (SMN2 mRNA): < 100 nM

SMILES: Cc1cn2cc(NC(=O)c3ccc(N4CCC(N)(CF)CC4)c4nccnc34)cc(F)c2n1 [Compound 356]
- IC50 (MYB mRNA [1]): 1000 to 10000 nM
- AC50 (MYB mRNA [1]): 1000 to 10000 nM
- IC50 (MYB mRNA [2]): 1000 to 10000 nM
- IC50 (SMN2 mRNA): 100 to 1000 nM

SMILES: COc1cn2cc(NC(=O)c3ccc(N4C[C@@H](C)N[C@@H](C)C4)c4nccnc34)cc(F)c2n1 [Compound 357]
- IC50 (MYB mRNA [1]): > 10000 nM
- AC50 (MYB mRNA [1]): 1000 to 10000 nM
- IC50 (MYB mRNA [2]): > 10000 nM
- IC50 (SMN2 mRNA): 100 to 1000 nM
